The record followed here is patent US8759013B2, “Dual-target biosensor cell assays” (Corning Incorporated, priority 2008, dated 2014).

Test [1] deals with endogenous receptors in A431 cells. Briefly: LOPAC library agonist screening with biosensor cellular assay (DMR). It is filed as cell-based, human. The conditions noted are these: for identification of beta-adrenoceptor agonists as hits in the agonist screen: 1 microM. On the procedure:
(§1) Corning® Epic® wavelength interrogation system was used.
Furthermore, a ligand-induced DMR is a real time kinetic response containing many useful parameters (e.g., phases, amplitudes and kinetics) for analyzing ligand pharmacology. The LOPAC library was used to screen agonists for endogenous receptors in A431 cells using real time kinetic measurements.
First, the response in terms of wavelength shift between before and 2 min after stimulation was calculated.
Second, the responses in terms of wavelength shift between before and 50 min after stimulation were calculated.
Third, the responses in terms of wavelength shift between 2 min and 50 min after stimulation were calculated. The difference in resonant wavelength between the two time points was plotted as a function of compounds (FIG. 8).

Test [2] has as its target T1, histamine receptor subtype 1 (H1R) (Homo sapiens, UniProt P35367). Briefly: Antagonist pretreatment against the histamine-induced DMR signal in A431 cells. Details: endogenous in cells; host or cells: A431 (human epidermoid carcinoma), quiescent after serum starvation. In kind it is cell-based. The note with it: pretreatment of A431 with compound at 1 μM.
Test [3] addresses T1, histamine receptor subtype 1 (H1R). Kind of test: Dual receptor-specific antagonist screening (LOPAC), histamine response. More on the design: endogenous in cells; host or cells: A431 (human epidermoid carcinoma), quiescent after serum starvation. It is filed as cell-based.
In test [4] the target is T2, β2-adrenergic receptor (β2AR) (Homo sapiens, UniProt P07550). Kind of test: Dual receptor-specific antagonist screening (LOPAC), epinephrine response. In kind it is cell-based. More on the design: A431 cells endogenously express both PAR1 and β2AR; endogenous in cells; host or cells: A431 (human epidermoid carcinoma), quiescent after serum starvation.
The target of test [5] is T2, β2-adrenergic receptor (β2AR). The note with it: co-stimulation with 2 nM epinephrine and 1 μM histamine; high doses.
Test [6] has the same target. The note with it: for type of DMR signal induced: A431 cells, 2 nanomolar in b161/b162.
From the text: as §1
A431 endogenously expresses large numbers of the β2AR, but neither β1 nor β3-ARs. […] The DMR signal consists of a small decreased signal (i.e., N-DMR) with a short duration, followed by an increased signal (i.e., P-DMR) to an elevated level.

The mark [7] stands for this setting: A431 cells, compound at 1 microM, real time kinetic.
Where [8] appears, read: compound 1 microM for one hour, then cocktail of epinephrine and histamine.

Like-named read-outs stand apart in the source and are kept apart here.

T1 sequence (P35367 whole entry): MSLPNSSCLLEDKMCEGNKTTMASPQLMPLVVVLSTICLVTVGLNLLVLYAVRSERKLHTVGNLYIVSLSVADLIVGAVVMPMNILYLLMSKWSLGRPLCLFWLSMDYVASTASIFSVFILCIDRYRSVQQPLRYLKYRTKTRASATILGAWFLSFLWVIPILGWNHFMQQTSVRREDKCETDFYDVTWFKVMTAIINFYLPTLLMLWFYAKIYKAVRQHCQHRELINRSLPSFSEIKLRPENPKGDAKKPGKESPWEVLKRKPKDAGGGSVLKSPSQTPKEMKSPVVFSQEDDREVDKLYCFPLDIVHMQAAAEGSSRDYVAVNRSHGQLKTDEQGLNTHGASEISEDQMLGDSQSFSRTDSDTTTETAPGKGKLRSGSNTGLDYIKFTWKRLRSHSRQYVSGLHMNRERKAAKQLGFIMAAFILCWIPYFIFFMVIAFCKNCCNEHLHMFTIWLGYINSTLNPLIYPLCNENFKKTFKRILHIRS

For `CC(C)NCC(O)c1ccc(NS(C)(=O)=O)cc1` (racemic) [(±)-Sotalol], the “ligand-induced DMR signal in agonist screening” value (from here on “ligand-induced DMR signal”) in test [1] (setting [7]) is on record as “did not result in any apparent DMR signals”.

Take `CN(C)CCC(c1ccc(Br)cc1)c1ccccn1` (racemic) [(±)-brompheniramine]: in test [2], the “effect on the DMR signal induced by 1 μM histamine” value (from here on “effect on the DMR signal induced”) is listed as “completely inhibited”. The “ligand-induced DMR signal” value in test [1] (setting [7]) is “did not lead to any DMR signal”. In test [3], the “effect on the histamine response in the co-stimulation” value (shortened to “effect on the histamine response”) is “completely or almost completely attenuated”.

Turning to `COCCc1ccc(OCC(O)CNC(C)C)cc1` (racemic) [(±)-metoprolol], the “ligand-induced DMR signal” value in test [1] (setting [7]) is “did not result in any apparent DMR signals”.

As to `CC(C)NCC(O)COc1cccc2ccccc12` (racemic) [(±)-propranolol], in test [1] (setting [7]), the “ligand-induced DMR signal” value was “did not result in any apparent DMR signals”.

Turning to `CC(C)(C)NCC(O)COc1cccc2[nH]c(=O)[nH]c12` (racemic) [(±)CGP12177], in test [1] (setting [7]), the “ligand-induced DMR signal” value is reported as “Gs-like DMR which only consists of the prolonged P-DMR event without the initial N-DMR event”.

On to `CN(C)CCC(c1ccc(Cl)cc1)c1ccccn1` (racemic) [(±)chlorpheniramine], for which the “ligand-induced DMR signal” value in test [1] (setting [7]) is “did not lead to any DMR signal”.

With `CN(C)CC[C@@H](c1ccc(Br)cc1)c1ccccn1` [(+)-brompheniramine], in test [1] (setting [7]), the “ligand-induced DMR signal” value was “did not lead to any DMR signal”. In addition, in test [3], the “effect on the histamine response” value is listed as “completely or almost completely attenuated”.

In the case of `CN(C)CC[C@@H](c1ccc(Cl)cc1)c1ccccn1` [(+)-chlorpheniramine], the “ligand-induced DMR signal” value in test [1] (setting [7]) is “did not lead to any DMR signal”.

As for `CC(C)NC[C@H](O)COc1cccc2ccccc12` [(S)-propranolol], in test [1] (setting [7]), the “ligand-induced DMR signal” value is reported as “did not result in any apparent DMR signals”.

On to `Cc1ccc(OCC(O)C(C)NC(C)C)c2c1CCC2` (centres unmarked) [ICI 118,551], for which the “ligand-induced DMR signal” value in test [1] (setting [7]) is reported as “did not result in any apparent DMR signals”. For the same compound, the “effect on the histamine response” value in test [3] (setting [8]) is reported as “little impact”.

Take `CC(C)NCC(O)c1ccc(O)c(O)c1` (stereo not drawn) [R(−)isoproterenol]: the “ligand-induced DMR signal” value in test [1] (setting [7]) is recorded as “typical Gs-type DMR signal”.

Turning to `CC(C)(C)NC[C@H](O)COc1nsnc1N1CCOCC1` [S(−)-timolol], the “ligand-induced DMR signal” value in test [1] (setting [7]) was “did not result in any apparent DMR signals”.

On to `CN(C)CCCCSC(=N)N` [SKF91488], for which, in test [2], the “effect on the DMR signal induced” value is given as “did not have obvious impact”.

With `c1cc(CN2CCCCC2)cc(OCCCNc2nc3ccccc3s2)c1` [SKF95282], the “ligand-induced DMR signal” value in test [1] (setting [7]) was “DMR that was similar to pindolol”. In addition, the “effect on the epinephrine response in the co-stimulation” value (from here on “effect on the epinephrine response”) in test [4] (setting [8]) was “partial desensitization”.

`CCc1ccccc1OC[C@@H](O)CN[C@H]1CCCc2ccccc21` [SR 59230A]: the “ligand-induced DMR signal” value in test [1] (setting [7]) is “did not result in any apparent DMR signals”. Moreover, the “effect on the epinephrine response” value in test [4] (setting [8]) is on record as “inhibited or partially attenuated”. Besides, the “effect on the histamine response” value in test [3] (setting [8]) was “little impact”.

With `C=CCc1ccccc1OCC(O)CNC(C)C` (centres unmarked) [alprenolol], the “ligand-induced DMR signal” value in test [1] (setting [7]) is on record as “did not result in any apparent DMR signals”. Also, the “effect on the histamine response” value in test [3] (setting [8]) is “little impact”.

As for `CCCCc1oc2ccccc2c1C(=O)c1cc(I)c(OCCN(CC)CC)c(I)c1` [amiodarone], the “identification of beta-adrenoceptor agonists as hits in the agonist screen” value in test [1] (A431 cells) was “false negative”.

For `CN(C)CCC=C1c2ccccc2CCc2ccccc21` [amitriptyline], the “effect on the epinephrine response” value in test [4] (setting [8]) is “little effect”.

Turning to `Clc1ccc2c(c1)C(N1CCNCC1)=Nc1ccccc1O2` [amoxapine], the “effect on the epinephrine response” value in test [4] (setting [8]) was “little effect”.

As for `CC(C)NCC(O)COc1ccc(CCOCC2CC2)cc1` (centres unmarked) [betaxolol], the “ligand-induced DMR signal” value in test [1] (setting [7]) is “did not result in any apparent DMR signals”. In addition, the “effect on the histamine response” value in test [3] (setting [8]) is “little impact”.

As to `CN1CCC[C@@H]1CCO[C@](C)(c1ccccc1)c1ccc(Cl)cc1` [clemastine], in test [1] (setting [7]), the “ligand-induced DMR signal” value is recorded as “did not lead to any DMR signal”.

For `Clc1ccc(Cn2c(CN3CCCC3)nc3ccccc32)cc1` [clemizole], the “effect on the DMR signal induced” value in test [2] is listed as “completely inhibited”. The “ligand-induced DMR signal” value in test [1] (setting [7]) is “did not lead to any DMR signal”. The “effect on the histamine response” value in test [3] (setting [8]) is recorded as “completely or almost completely attenuated”.

Consider `CN(C)CCOC(C)(c1ccccc1)c1ccccn1` (centres unmarked) [doxylamine], for which the “ligand-induced DMR signal” value in test [1] (setting [7]) is reported as “did not lead to any DMR signal”. For the same compound, the “effect on the histamine response” value in test [3] (setting [8]) is “completely or almost completely attenuated”.

Take `CNC[C@H](O)c1ccc(O)c(O)c1` [epinephrine]: the “effect of pretreatment on the epinephrine response” value in test [5] was “completely inhibited”. For the same compound, the “type of DMR signal induced” value in test [6] is listed as “Gs-type DMR signal”; in test [6] (listed as Epinephrine), “biphasic Gs-type DMR response”. Further, the “Hill slope of the epinephrine DMR response” value in test [6] (quiescent A431 cells, n=10) is 0.95.

Regarding `NC(N)=Nc1nc(CSCCC(N)=NS(N)(=O)=O)cs1` [famotidine], in test [1] (setting [7]), the “ligand-induced DMR signal” value is recorded as “DMR that was similar to pindolol”. Also, the “effect on the epinephrine response” value in test [4] (setting [8]) is “partial desensitization”.

For the compound `CC(C)(C(=O)O)c1ccc(C(O)CCCN2CCC(C(O)(c3ccccc3)c3ccccc3)CC2)cc1` (centres unmarked) [fexofenadine], the “ligand-induced DMR signal” value in test [1] (setting [7]) is reported as “did not lead to any DMR signal”.

For `N=C(N)SCCc1cnc[nH]1` [imetit], the “ligand-induced DMR signal” value in test [1] (setting [7]) was “did not lead to any obvious DMR signal”.

As for `CN1CCC(=C2c3ccccc3CC(=O)c3sccc32)CC1` [ketotifen], in test [1] (setting [7]), the “ligand-induced DMR signal” value is recorded as “did not lead to any DMR signal”.

On to `CNCCCC12CCC(c3ccccc31)c1ccccc12` [maprotiline], for which, in test [4] (setting [8]), the “effect on the epinephrine response” value was “little effect”.

Take `CN(C)CCN(Cc1cccs1)c1ccccn1` [methapyrilene]: the “ligand-induced DMR signal” value in test [1] (setting [7]) was “did not lead to any DMR signal”.

As for `CNCCC=C1c2ccccc2CCc2ccccc21` [nortriptyline], the “effect on the epinephrine response” value in test [4] is recorded as “little effect”.

Regarding `CN(C)CCC(c1ccccc1)c1ccccn1` (centres unmarked) [pheniramine], the “ligand-induced DMR signal” value in test [1] (setting [7]) is “did not lead to any DMR signal”. Also, in test [3] (setting [8]), the “effect on the histamine response” value is “partial inhibition”.

Take `CC(COc1ccccc1)N(CCCl)Cc1ccccc1` (centres unmarked) [phenoxybenzamine]: the “effect on the epinephrine response” value in test [4] (setting [8]) is “little effect”. Moreover, the “effect on the histamine response” value in test [3] is “almost completely inhibited”.

For `CC(CN1c2ccccc2Sc2ccccc21)N(C)C` (centres unmarked) [promethazine], in test [1] (setting [7]), the “ligand-induced DMR signal” value is reported as “did not lead to any DMR signal”.

In the case of `COc1ccc(CN(CCN(C)C)c2ccccn2)cc1` [pyrilamine], in test [1] (setting [7]), the “ligand-induced DMR signal” value is “did not lead to any DMR signal”.

Consider `CC(C)(C)c1ccc(C(O)CCCN2CCC(C(O)(c3ccccc3)c3ccccc3)CC2)cc1` (centres unmarked) [terfenadine], for which, in test [1] (setting [7]), the “ligand-induced DMR signal” value is reported as “did not lead to any DMR signal”.

Turning to `S=C(NC1CCCCC1)N1CCC(c2cnc[nH]2)CC1` [thioperamide], the “effect on the DMR signal induced” value in test [2] is “did not have obvious impact”.

In the case of `Cc1ccc(/C(=C\CN2CCCC2)c2ccccn2)cc1` [triprolidine], in test [2], the “effect on the DMR signal induced” value is recorded as “completely inhibited”. In addition, the “ligand-induced DMR signal” value in test [1] (setting [7]) was “did not lead to any significant DMR signal”. In addition, the “effect on the histamine response” value in test [3] (setting [8]) is on record as “completely or almost completely attenuated”.

For the compound (S)-(−)-propafenone, the “ligand-induced DMR signal” value in test [1] (setting [7]) is on record as “did not result in any apparent DMR signals”. In addition, in test [4] (setting [8]), the “effect on the epinephrine response” value is “inhibited or partially attenuated”.

In the case of (±)-ephedrine, in test [1] (A431 cells), the “identification of beta-adrenoceptor agonists as hits in the agonist screen” value was “false negative”.

Regarding (±)isoproterenol, the “ligand-induced DMR signal” value in test [1] (setting [7]) is given as “typical Gs-type DMR signal”.

In the case of R(−)-α-methyl-histamine, the “ligand-induced DMR signal” value in test [1] is recorded as “did not lead to any obvious DMR signal”.

Ruthernium red: the “ligand-induced DMR signal” value in test [1] (setting [7]) is recorded as “Gs-like DMR signal but with much larger amplitude”.

In the case of S(−)pindolol, in test [1] (setting [7]), the “ligand-induced DMR signal” value was “Gs-like DMR which only consists of the prolonged P-DMR event without the initial N-DMR event”.
